Experiments:
[1] = logp (HCOOH), physicochemical characterization
[2] = tested on: Triticum aestivum (spring); assay: Pre-emergence herbicidal effect and crop plant compatibility; assay type: in vivo; settings: 80 g/ha, 3 weeks
Summary of the method: (§1)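 Application to covering soil post-sowing: WP or EC, 600–800 L/ha, 0.2% wetting agent. Readout: visual % efficacy after 3 weeks, greenhouse, untreated plants as 0%.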

Zea mays [3] = assay: as above; assay type: in vivo; settings: 80 g/ha, 3 weeks
Summary of the method: as §1

Abutilon theophrasti = assay: Pre-emergence herbicidal effect; assay type: in vivo; settings: 3 weeks
Summary of the method: as §1

Alopecurus myosuroides [4] = assay: Pre-emergence herbicidal effect; assay type: in vivo; settings: 3 weeks
Summary of the method: as §1

Amaranthus retroflexus = assay: Pre-emergence herbicidal effect; assay type: in vivo; settings: 3 weeks
Summary of the method: as §1

Avena fatua [5] = assay: Pre-emergence herbicidal effect; assay type: in vivo; settings: 320 g/ha, 3 weeks
Summary of the method: as §1

Cyperus esculentus = assay: Pre-emergence herbicidal effect; assay type: in vivo; settings: 320 g/ha, 3 weeks
Summary of the method: as §1

Echinochloa crus-galli [6] = assay: Pre-emergence herbicidal effect; assay type: in vivo; settings: 3 weeks
Summary of the method: as §1

Lolium multiflorum [7] = assay: Pre-emergence herbicidal effect; assay type: in vivo; settings: 3 weeks
Summary of the method: as §1

Matricaria inodora = assay: Pre-emergence herbicidal effect; assay type: in vivo; settings: 3 weeks
Summary of the method: as §1

Polygonum convolvulus = assay: Pre-emergence herbicidal effect; assay type: in vivo; settings: 3 weeks
Summary of the method: as §1

Setaria viridis [8] = assay: Pre-emergence herbicidal effect; assay type: in vivo; settings: 3 weeks
Summary of the method: as §1

Stellaria media = assay: Pre-emergence herbicidal effect; assay type: in vivo; settings: 3 weeks
Summary of the method: as §1

Veronica persica = assay: Pre-emergence herbicidal effect; assay type: in vivo; settings: 3 weeks
Summary of the method: as §1

Viola tricolor = assay: Pre-emergence herbicidal effect; assay type: in vivo; settings: 3 weeks
Summary of the method: as §1

Oryza sativa [9] = assay: Post-emergence herbicidal effect and crop plant compatibility; assay type: in vivo; settings: visual scoring after about 3 weeks
Summary of the method: (§2)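 One-leaf-stage seedlings, 2 to 3 weeks old and grown in sandy loam, received an aqueous spray of WP- or EC-formulated compound (600 to 800 L/ha, 0.2% wetting agent) and then stood in the greenhouse for about 3 weeks before visual scoring against controls.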

[10] = tested on: Triticum aestivum (spring); assay: as above; assay type: in vivo; settings: visual scoring after about 3 weeks
Summary of the method: as §2

Zea mays [11] = assay: as above; assay type: in vivo; settings: visual scoring after about 3 weeks
Summary of the method: as §2

Avena fatua [12] = assay: Post-emergence herbicidal effect; assay type: in vivo; settings: 320 g/ha, visual scoring after about 3 weeks
Summary of the method: as §2

Echinochloa crus-galli [13] = assay: Post-emergence herbicidal effect; assay type: in vivo; settings: visual scoring after about 3 weeks
Summary of the method: as §2

Ipomoea purpurea [14] = assay: Post-emergence herbicidal effect; assay type: in vivo; settings: scoring after about 3 weeks
Summary of the method: as §2

Lolium multiflorum [15] = assay: Post-emergence herbicidal effect; assay type: in vivo; settings: visual scoring after about 3 weeks
Summary of the method: as §2

Setaria viridis [16] = assay: Post-emergence herbicidal effect; assay type: in vivo; settings: 320 g/ha (dose by row order of upper half), scoring after about 3 weeks
Summary of the method: as §2

Oryza sativa [17] = assay: Pre-emergence herbicidal effect and crop plant compatibility; assay type: in vivo; settings: 3 weeks
Summary of the method: as §1

Ipomoea purpurea [18] = assay: Pre-emergence herbicidal effect; assay type: in vivo; settings: 320 g/ha, 3 weeks
Summary of the method: as §1

Alopecurus myosuroides [19] = assay: Post-emergence herbicidal effect; assay type: in vivo; settings: 320 g/ha, visual scoring after about 3 weeks
Summary of the method: as §2

Brassica napus = assay: Post-emergence herbicidal effect and crop plant compatibility; assay type: in vivo; settings: 80 g/ha, visual scoring after about 3 weeks
Summary of the method: as §2

[20] = 80 g/ha (dose by row order of upper half)

Row | SMILES | logp (HCOOH) [1] | ZEAMX herbicidal activity in percent (Zea mays [3]) | ALOMY herbicidal activity in percent (Alopecurus myosuroides [4]; 320 g/ha) | AMARE herbicidal activity in percent (Amaranthus retroflexus; 80 g/ha) | AMARE herbicidal activity in percent (Amaranthus retroflexus; 320 g/ha) | AVEFA herbicidal activity in percent (Avena fatua [5]) | ECHCG herbicidal activity in percent (Echinochloa crus-galli [6]; 80 g/ha) | ECHCG herbicidal activity in percent (Echinochloa crus-galli [6]; 320 g/ha) | LOLMU herbicidal activity in percent (Lolium multiflorum [7]; 320 g/ha) | MATIN herbicidal activity in percent (Matricaria inodora; 320 g/ha) | POLCO herbicidal activity in percent (Polygonum convolvulus; 320 g/ha) | SETVI herbicidal activity in percent (Setaria viridis [8]; 320 g/ha) | STEME herbicidal activity in percent (Stellaria media; 80 g/ha) | STEME herbicidal activity in percent (Stellaria media; 320 g/ha) | VERPE herbicidal activity in percent (Veronica persica; 80 g/ha) | VERPE herbicidal activity in percent (Veronica persica; 320 g/ha) | VIOTR herbicidal activity in percent (Viola tricolor; 80 g/ha) | VIOTR herbicidal activity in percent (Viola tricolor; 320 g/ha) | post-emergence efficacy ORYSA (Oryza sativa [9]; 80 g/ha) | post-emergence efficacy TRZAS ([10]; 80 g/ha) | further results
1 | Cc1ccc2c(c1)[C@H](Nc1ncc3c(n1)CCCC3=O)[C@@H](C)C2 [2.43] | solid; logp (HCOOH): 3.45; 1H-NMR (CDCl3, 400 MHZ, δ in ppm): 1.25 (t, 3H, CH3); | 20% | 100% | 100% | 100% | 100% | 100% | 100% | 100% | 100% | 100% | 100% | 100% | 100% | 100% | 100% | 100% | 100% | 10% | 10% | TRZAS herbicidal activity in percent [2]: 0%; ABUTH herbicidal activity in percent (Abutilon theophrasti; 320 g/ha): 100%; ALOMY herbicidal activity in percent (Alopecurus myosuroides [4]; 80 g/ha): 100%; CYPES herbicidal activity in percent (Cyperus esculentus): 80%; LOLMU herbicidal activity in percent (Lolium multiflorum [7]; 80 g/ha): 100%; MATIN herbicidal activity in percent (Matricaria inodora; 80 g/ha): 100%; POLCO herbicidal activity in percent (Polygonum convolvulus; 80 g/ha): 100%; SETVI herbicidal activity in percent (Setaria viridis [8]; 80 g/ha): 90%; post-emergence efficacy TRZAS ([10]; 320 g/ha): 10%; post-emergence efficacy ZEAMX (Zea mays [11]; 80 g/ha): 0%; post-emergence efficacy AVEFA (Avena fatua [12]): 100%; post-emergence efficacy ECHCG (Echinochloa crus-galli [13]; 80 g/ha): 90%; post-emergence efficacy ECHCG (Echinochloa crus-galli [13]; 320 g/ha): 90%; post-emergence efficacy PHBPU (Ipomoea purpurea [14]; [20]): 80%; post-emergence efficacy LOLMU (Lolium multiflorum [15]; 80 g/ha): 80%; post-emergence efficacy LOLMU (Lolium multiflorum [15]; 320 g/ha): 100%; post-emergence efficacy SETVI (Setaria viridis [16]): 80%
2 | Cc1ccc2c(c1)[C@H](Nc1ncc3c(n1)CC(C)(C)CC3=O)[C@@H](C)C2 [2.45] | oily; logp (HCOOH): 4.23; 1H-NMR (CDCl3, 400 MHZ, δ in ppm): 1.10 (m, 6H, | 10% | 90% | 100% | 100% | 80% | 100% | 100% | 100% | 90% | 100% | 100% | 100% | 100% | 100% | 100% | 100% | 100% | 20% | 10% | ORYSA herbicidal activity in percent (Oryza sativa [17]; 80 g/ha): 0%; ORYSA herbicidal activity in percent (Oryza sativa [17]; 320 g/ha): 10%; ABUTH herbicidal activity in percent (Abutilon theophrasti; 80 g/ha): 80%; ABUTH herbicidal activity in percent (Abutilon theophrasti; 320 g/ha): 80%; PHBPU herbicidal activity in percent (Ipomoea purpurea [18]): 90%; LOLMU herbicidal activity in percent (Lolium multiflorum [7]; 80 g/ha): 80%; MATIN herbicidal activity in percent (Matricaria inodora; 80 g/ha): 90%; POLCO herbicidal activity in percent (Polygonum convolvulus; 80 g/ha): 100%; SETVI herbicidal activity in percent (Setaria viridis [8]; 80 g/ha): 100%; post-emergence efficacy TRZAS ([10]; 320 g/ha): 10%; post-emergence efficacy ZEAMX (Zea mays [11]; 80 g/ha): 0%; post-emergence efficacy ZEAMX (Zea mays [11]; 320 g/ha): 0%; post-emergence efficacy ALOMY (Alopecurus myosuroides [19]): 80%; post-emergence efficacy AVEFA (Avena fatua [12]): 80%; post-emergence efficacy ECHCG (Echinochloa crus-galli [13]; 80 g/ha): 100%; post-emergence efficacy ECHCG (Echinochloa crus-galli [13]; 320 g/ha): 100%; post-emergence efficacy PHBPU (Ipomoea purpurea [14]; [20]): 100%; post-emergence efficacy PHBPU (Ipomoea purpurea [14]; 320 g/ha (dose by row order of upper half)): 100%; post-emergence efficacy LOLMU (Lolium multiflorum [15]; 320 g/ha): 100%; post-emergence efficacy SETVI (Setaria viridis [16]): 90%
3 | CC1CC(=O)c2cnc(N[C@@H]3CCCc4ccccc43)nc2C1 (stereo partly shown) [2.26] | oily; logp (HCOOH): 3.45; 1H-NMR (CDCl3, 400 MHZ, δ in ppm): 1.15 (m, 3H, CH3); | 0% | 90% | 100% | 100% | 90% | 80% | 100% | 100% | 100% | 100% | 90% | 100% | 100% | 80% | 100% | 90% | 100% | 0% | 0% | TRZAS herbicidal activity in percent [2]: 0%; post-emergence efficacy BRSNW (Brassica napus): 20%; post-emergence efficacy ORYSA (Oryza sativa [9]; 320 g/ha): 0%; post-emergence efficacy TRZAS ([10]; 320 g/ha): 0%; post-emergence efficacy ZEAMX (Zea mays [11]; 80 g/ha): 0%; post-emergence efficacy ZEAMX (Zea mays [11]; 320 g/ha): 0%

From US10183914B2 (BAYER CROPSCIENCE AKTIENGESELLSCHAFT, priority 2014, dated 2019)
